From the NIST ThermoML archive (doi:10.1021/je800896m)
“And” between values parts separate entries of the source, which are not always exact repeats. Equal values may be shown once. ± gives the expanded uncertainty stated by the source.

Conditions: Liquid, Closed cell (Static) method

| Structure (SMILES) | vapor or sublimation pressure (318.35 K) | vapor or sublimation pressure (346.97 K) | vapor or sublimation pressure (346.14 K) [kPa] | vapor or sublimation pressure (318.34 K) [kPa] | vapor or sublimation pressure (347.06 K) [kPa] | vapor or sublimation pressure (346.96 K) [kPa] | vapor or sublimation pressure (347.07 K) [kPa] |
| --- | --- | --- | --- | --- | --- | --- | --- |
| C=C(C)C [2-methylpropene] | 542.1 ± 1.9 kPa | – | 1054.9 ± 3.4 | – | – | – | – |
| C/C=C/C [(E)-2-butene] | – | – | – | 423.5 ± 1.6 | 868.5 ± 2.8 | – | – |
| CC(C)C [2-methylpropane] | – | – | – | 608.3 ± 2.1 | – | 1177.5 ± 3.7 | – |

Now from value to compound:

| vapor or sublimation pressure (318.35 K) | vapor or sublimation pressure (346.97 K) | vapor or sublimation pressure (346.14 K) [kPa] | vapor or sublimation pressure (318.34 K) [kPa] | vapor or sublimation pressure (347.06 K) [kPa] | vapor or sublimation pressure (346.96 K) [kPa] | vapor or sublimation pressure (347.07 K) [kPa] | Structure (SMILES) |
| --- | --- | --- | --- | --- | --- | --- | --- |
| 437.5 ± 1.6 kPa | 881.7 ± 2.8 kPa | – | – | – | – | – | CCCC [butane] |
| 6.9 ± 0.8 kPa and 6.7 ± 0.8 kPa | 22.2 ± 0.8 kPa and 22.5 ± 0.8 kPa | 21.4 ± 0.8 | 7.3 ± 0.8 | – | – | 22.2 ± 0.8 | C1CCSC1 [tetrahydrothiophene] |
